# Source: patent US20240365774A1, “METHODS FOR CRYOPROTECTION AND LYOPROTECTION OF CELLS” (LONZA LTD, priority 2021, published 2024)
# Entries after “also recorded” stand apart in the source; their conditions may differ.
# System: human mesenchymal stem cells (hMSCs)
# Assay: Freeze-thaw of hMSCs in CPA formulations at −80° C., viability by alamarBlue assay
# Assay type: cell-based
# Procedure: Adherent bone marrow derived human mesenchymal stem cells (hMSCs) (ATCC) were expanded to create a cell bank and stored in the vapor phase of liquid nitrogen in growth medium supplemented with 50% FBS and 7.5% DMSO at passage 3. Aliquots of those samples were warmed in a 37° C. water bath and cultured in MSCGM™ Mesenchymal Stem Cell Growth Medium BulletKit™ (containing FBS, Lonza); a commercially available medium that facilitates undifferentiated proliferation of hMSCs. The cells were kept in a humidified incubator at 37° C. and 5% CO2, whilst the growth medium was changed every 3-4 days. When hMSCs reached confluence of ˜90%, they were split and re-seeded at ˜5000 cells/cm^2 to facilitate further expansion. For experiments, cells between passages 4-8 were used. […]
# For frozen samples, that is for samples after freezing and thawing, viability was measured by performing an alamarBlue™ assay (Invitrogen) according to the manufacturer's instructions. […] This reaction only takes place in cells that are metabolically active (viable), thus correlating measured fluorescence with viable cells. […] Assay reagent was then applied and, after a 4 h incubation, fluorescence was measured using a SpectraMax® iD3 with wavelengths of λex=550 nm and λem=590 nm. Background fluorescence values were subtracted from the measurements and compared to fluorescence values of untreated cells.
Structure (SMILES),"viable cells after freeze-thaw (cryoprotection) (urea alone, 0.05, 0.1, 0.2 and 0.5 M, FIG. 1A)",viable cells after freeze-thaw (5% DMSO control) [%]
NC(N)=O [urea],virtually no viable cells; also recorded: does not facilitate cryoprotection,–
"C[S+](C)[O-] [DMSO, dimethyl sulfoxide, reference compound]",–,58
